{
  "source": "patent US20230202982A1",
  "about": "“5-CHLORO-4-HYDROXY-1-METHYL-2-OXO-N-PHENYL-QUINOLINE-3-CARBOXAMIDE POTASSIUM SALT FOR TREATING INFLAMMATORY BOWEL DISEASES” (Aqilion AB, priority 2020, published 2023)",
  "key": {"[1]": {"assay": "Stability in aqueous solutions (impurity profile by HPLC-UV)", "type": "physicochemical", "conditions": "PBS (pH 7.4) and SCF, room temperature, 48 and 72 hours", "experimental": "The solubility and stability at room temperature of Example compound 1 and the free acid compound 5-chloro-4-hydroxy-1-methyl-2-oxo-N-phenyl-quinoline-3-carboxamide (described in Example 1a) above) was determined in PBS (pH 7.4) and in simulated colonic fluid (SCF) at ambient temperature. The SCF was the product FaSSCof obtained from Biorelevant.com prepared according to the manufacturer’s instructions. FaSSCof contains 0.15 mM sodium cholate, 0.3 mM Phospholipids, 0.1 mM Oleate, 120 mM sodium hydroxide, 45 mM TRIS and 76 mM maleate.\nSaturated solutions were prepared in these solvents and the concentrations/impurity profile was determined by HPLC-UV using a calibration curve in the range of 1 to 150 µg/ml at 300 nm or 320 nm. Visual evaluation was also performed after every step over the testing period.\nThe samples were also analysed for the presence of impurities. After a period of 48 and 72 hours, all impurities were below the lower limit of quantitation."}, "[2]": {"assay": "Hygroscopicity by Dynamic Vapour Sorption (DVS)", "type": "physicochemical", "conditions": "25° C.; for Hygroscopicity: DVS, 0 to 90% RH, potassium salt", "experimental": "Dynamic Vapour Sorption (DVS) analysis was carried out on a sample of Example compound 1.\nApproximately 20 mg of sample was placed into a wire-mesh vapour sorption balance pan and loaded into an ‘IgaSorp’ vapour sorption balance (Hiden Analytical Instruments). The sample was then dried by maintaining a 0% humidity environment until no further weight change was recorded.\nThe sample was then subjected to a step profile from 0 to 90% RH at 10% RH increments. The desorption isotherm was from 90% RH o 0% RH in 10% RH steps. The weight change during the sorption/desorption cycles were then monitored, allowing for the hygroscopic nature of the sample to be determined. Analysis was performed using the following parameters: • Analysis Mode F1 • Wait Time 99% • Sample Temperature 25° C. • Min Time Out 30 Mins • MaxTime Out 180 Mins • Gas Flow Rate 250 ml/min"}, "[3]": {"target": "T1, aryl hydrocarbon receptor (AhR) (Mus musculus, UniProt P30561)", "T1 construct": "evaluated in a wild-type (WT) mice; from tissue; host or cells: colon and liver of wild-type mice, in vivo after oral dosing", "T1 sequence (P30561 10-848)": "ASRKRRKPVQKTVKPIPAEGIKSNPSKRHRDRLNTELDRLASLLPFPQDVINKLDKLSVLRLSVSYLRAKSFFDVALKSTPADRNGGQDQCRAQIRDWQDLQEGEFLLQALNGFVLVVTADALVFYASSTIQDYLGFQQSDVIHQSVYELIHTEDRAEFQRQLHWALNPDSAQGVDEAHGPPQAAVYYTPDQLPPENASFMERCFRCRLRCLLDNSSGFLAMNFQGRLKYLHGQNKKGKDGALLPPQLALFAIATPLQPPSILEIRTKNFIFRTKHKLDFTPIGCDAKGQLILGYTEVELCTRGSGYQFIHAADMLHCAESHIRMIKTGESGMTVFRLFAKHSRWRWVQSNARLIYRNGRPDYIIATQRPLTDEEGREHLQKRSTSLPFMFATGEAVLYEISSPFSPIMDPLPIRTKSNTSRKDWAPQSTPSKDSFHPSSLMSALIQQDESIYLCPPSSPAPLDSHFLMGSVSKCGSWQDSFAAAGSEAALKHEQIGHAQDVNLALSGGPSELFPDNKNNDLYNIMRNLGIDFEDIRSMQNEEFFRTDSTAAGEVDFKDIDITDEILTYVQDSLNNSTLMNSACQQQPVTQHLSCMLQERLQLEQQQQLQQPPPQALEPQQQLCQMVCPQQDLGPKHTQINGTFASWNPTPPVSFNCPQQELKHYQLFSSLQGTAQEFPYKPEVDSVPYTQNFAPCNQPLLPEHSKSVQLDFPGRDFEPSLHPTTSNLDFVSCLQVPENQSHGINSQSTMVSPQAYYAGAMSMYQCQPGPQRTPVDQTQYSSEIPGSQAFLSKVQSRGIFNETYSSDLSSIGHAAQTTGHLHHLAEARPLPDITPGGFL", "assay": "Activation of AhR in mice after oral administration, qPCR of CYP1A1", "type": "in vivo", "conditions": "for Colon CYP1A1 (fold change over untreated), Mean / Liver CYP1A1 (fold change over untreated), Mean: day 14, C57Bl/6 mice", "experimental": "The potential of the 5-chloro-4-hydroxy-1-methyl-2-oxo-N-phenyl-quinoline-3-carboxamide potassium salt (Example compound 1) to activate the aryl hydrocarbon receptor (AhR) in the colon following oral administration was evaluated in a wild-type (WT) mice.\nOn study day 0, animals were weighed and evenly distributed into treatment groups based on body weight.\nOn study day 14, animals were asphyxiated via CO2 inhalation followed by cervical dislocation. The entire colon was removed, collected and prepared for qPCR analysis of CYP1A1 (Normalized to GAPDH & ACTB).\nThe Example compound 1 was formulated as a 0.1 mg/ml, 0.01 mg/ml or 0.001 mg/ml suspension with sodium carboxymethyl cellulose (1%, w/v)."}, "[4]": {"assay": "In vivo pharmacokinetic study in rats after oral dosing", "set-up": "species or system Sprague Dawley rats", "conditions": "1 mg/kg oral; for Level in plasma after oral dosing: 15 min to 24 h post dose", "experimental": "An in vivo pharmacokinetic study in rats was performed to determine if 5-chloro-4-hydroxy-1-methyl-2-oxo-N-phenyl-quinoline-3-carboxamide potassium salt (example compound 1) can be absorbed and detected systemically after oral dosing.\n4 male Sprague Dawley rats, approximately 225 g - 250 g at dosing were dosed with 1 mg/kg of Example compound 2 formulated as a 0.1 mg/mL suspension with sodium carboxymethyl cellulose (1%, w/v). Blood samples were taken at 15 min, 30 min, 1 h, 2 h, 4 h, 6 h, 8 hand 24 h post dose\nAt each blood sampling approximately 250 µL blood was sampled in K3EDTA vials and approximately 100 µL plasma was also prepared.\nThe plasma samples were prepared by mixing 50 µL plasma with 250 µL of internal standard solution (20 ng/ml of phenacetin in ACN with 1% formic acid), mixed and centrifuged (20 min, 4000 rpm).\nPlasma samples were transferred to Waters Ostro 96-well plate and drawn through the plate by applying 6-8 psi positive pressure for 10 min. 100 µL of supernatant was further diluted with 50 µL UP water and sample was submitted to analysis.\nThe standard and QC samples were prepared into blank rat colon homogenate and blank rat plasma. Standards were spiked into concentrations 0.1 - 10000 ng/ml of the analytes, QC samples into 3, 30, 300 and 3000 ng/ml, and were otherwise treated as samples."}},
  "data": [
    {"compound": "Cn1c(=O)c(C(=O)Nc2ccccc2)c([O-])c2c(Cl)cccc21.[K+]", "note": "[Example compound 1, 5-chloro-4-hydroxy-1-methyl-2-oxo-N-phenyl-quinoline-3-carboxamide potassium salt]", "values": [
      {"measurement": "Stability in aqueous solution (impurities)", "setting": "[1]", "value": "stable in aqueous solution"},
      {"measurement": "Hygroscopicity", "setting": "[2]; listed as 5-chloro-4-hydroxy-1-methyl-2-oxo-N-phenylquinoline-3-carboxamide potassium salt", "value": "not hygroscopic"},
      {"measurement": "Hygroscopicity", "setting": "[2]", "value": "non-hygroscopic"},
      {"measurement": "Reversible weight gain (DVS)", "setting": "[2]; analysed to 80% RH", "value": "less than 0.2%"},
      {"measurement": "Colon CYP1A1 (fold change over untreated), Mean", "setting": "[3]; 0.01 mg/kg PO QD D0-13, colon", "value": "1.03 fold change over untreated"},
      {"measurement": "Liver CYP1A1 (fold change over untreated), Mean", "setting": "[3]; 0.01 mg/kg PO QD D0-13, liver", "value": "1.08 fold change over untreated"},
      {"measurement": "Colon CYP1A1 (fold change over untreated), Mean", "setting": "[3]; 0.1 mg/kg PO QD D0-13, colon", "value": "7.42 fold change over untreated"},
      {"measurement": "Liver CYP1A1 (fold change over untreated), Mean", "setting": "[3]; 0.1 mg/kg PO QD D0-13, liver", "value": "2.81 fold change over untreated"},
      {"measurement": "Colon CYP1A1 (fold change over untreated), Mean", "setting": "[3]; 1.0 mg/kg PO QD D0-13, colon", "value": "8.34 fold change over untreated"},
      {"measurement": "Liver CYP1A1 (fold change over untreated), Mean", "setting": "[3]; 1.0 mg/kg PO QD D0-13, liver", "value": "3.44 fold change over untreated"},
      {"measurement": "CYP1A1 mRNA expression compared to untreated animals", "setting": "[3]; 1.0 and 0.1 mg/kg oral, WT mice", "value": "significant increase"},
      {"measurement": "Level in plasma after oral dosing", "setting": "[4]; FIG. 7, listed as 5-chloro-4-hydroxy-1-methyl-2-oxo-N-phenyl-quinoline-3-carboxamide potassium sal, potassium salt", "value": "absorbed through the intestine into the plasma"},
      {"measurement": "Level in plasma after oral dosing", "setting": "[4]; FIG. 7, potassium salt", "value": "detected in the plasma"},
      {"measurement": "Clearance from plasma", "setting": "[4]; FIG. 7", "value": "rapidly cleared"}
    ]}
  ]
}
